US7419997B2, “Tetrahydrocarbazole derivatives and their pharmaceutical use” (SmithKline Beecham Corporation, priority 2003, dated 2008)

Tested on: episomal HPV16 DNA in W12-20850 cells
Assay: W-12 cellular assay (episomal HPV-16 DNA, hybrid capture)
Type: cell-based, HPV16 (human papillomavirus)
Conditions: Human papillomavirus 16, 96 h, four days incubation, episomal HPV-16 DNA quantified by hybrid capture, inhibition relative to untreated control cells
Experimental: Compounds of the current invention are believed useful in the treatment and/or prophylaxis of conditions and diseases associated with HPV infection. Activity mediated through HPV was determined using the following W-12 cellular assay.
The W12 cell line used contains HPV16 DNA and was derived from a low-grade cervical dysplasia tissue by Margaret Stanley and subsequently clonally selected by Paul Lambert (University of Wisconsin). One of these clones, W12-20850, contains 1000 copies of episomal HPV16 DNA and was used in the cell-based assay. W12-20850 cells were routinely cultured with a gamma-irradiated (6000 rads) feeder layer of 3T3 cells. Assays, however, were run in the absence of a 3T3 feeder layer. W12-20850 and 3T3 cells were routinely split when they were sub-confluent. W12-20850 were grown in W12 Medium which is constituted of 25% DMEM (Gibco BRL, Cat # 12430-047), 75% F12 Media (Gibco BRL, Cat # 11765-021) and 2.5% FBS. The additives include […] Adenine (Sigma, Cat # A-9795), 0.4 mg/ml Hydrocortisone (Calbiochem, Cat # 386698), […] Bovine Insulin (Sigma, Cat # I-1882), 8.4 ng/ml cholera toxin (Fluka, Cat # 26694) and 10 ng/ml EGF (Invitrogen, Cat # 13247-051). 3T3 cells were grown in DMEM containing 10% FBS. Cell lines were incubated at 37° C., in the presence of 5% CO2.
For the assay, W12-20850 cells were seeded into a 96 well plate-containing compound. Plates were incubated at 37° C. in the presence of 5% CO2, for four days. On the fourth day, cells were lysed and the amount of episomal HPV-16 DNA was quantified using a non-radioactive hybrid capture technique with HPV-16 specific capture and detection probes. The percent inhibition relative to untreated control cells was then determined.
The hybrid capture assay is run in a 96 well plate format. Hybridization plates (Nunc Maxisorb Cat # 450320) were coated with a mixture of capture probe and ReactiBind solution for at least 4 hours and then washed with 0.2)(SSC, 0.05% Tween20 (SSCT) prior to blocking with 150 μl/well of 0.2 N NaOH, 1% Igepal, 10 mg/ml hsDNA for 6-8 hours. The hybridization was carried out by mixing 271 μl of lysed cells with 45 μl of denatured detection probe in 6M guanidine isothiocyanate. To prevent evaporation, 50 μl of mineral oil was added to each well. The plate was then heated to 90° C. for 6.5 minutes and the hybridization continued at 42° C. overnight. Assay plates were washed 6 times with SSC/T. Anti-digoxigenin HRP-conjugated Ab (Boehringer Mannheim 1207733, 1:5000) was incubated in the wells for 30 min at room temperature and washed with PBS/0.05% Tween-20. SuperSignal LBA substrate (Pierce Cat # 37070) was added, and chemiluminescence was measured using Wallac 1420 Victor plate reader.

| Compound | IC50 [nM] |
| --- | --- |
| O=C(N[C@H]1CCCc2c1[nH]c1ccc(Cl)cc21)c1ccccc1 [Example 36C, N-[(1S)-6-chloro-2,3,4,9-tetrahydro-1H-carbazol-1-yl]benzamide] | > 10000 |
| O=C(NC1CCCc2c1[nH]c1ccc(Br)cc21)OCc1ccccc1 (stereo not shown) [Example 18, Benzyl 6-bromo-2,3,4,9-tetrahydro-1H-carbazol-1-ylcarbamate] | 44 |
| O=C(NC1CCCc2c1[nH]c1ccc(Cl)cc21)c1c[nH]cn1 (stereo not shown) [Example 50, N-(6-Chloro-2,3,4,9-tetrahydro-1H-carbazol-1-yl)-1H-imidazole-4-carboxamide] | 440 |
| O=C(NC1CCCc2c1[nH]c1ccc(Br)cc21)c1ccc(Cl)nc1 (stereo not shown) [Example 40, N-(6-Bromo-2,3,4,9-tetrahydro-1H-carbazol-1-yl)-6-chloronicotinamide] | 24 |
| O=C(NC1CCCc2c1[nH]c1ccc(Br)cc21)c1ccccc1Cl (stereo not shown) [Example 32, N-(6-Bromo-2,3,4,9-tetrahydro-1H-carbazol-1-yl)-2-chlorobenzamide] | 1400 |
| O=C(/C=C/c1ccccc1)NC1CCCc2c1[nH]c1ccc(Br)cc21 (stereo not shown) [Example 17, N-(6-Bromo-2,3,4,9-tetrahydro-1H-carbazol-1-yl)-3-phenylprop-2-enamide] | 318 |
| O=C(NC1CCCc2c1[nH]c1ccc(Br)cc21)c1ccc([N+](=O)[O-])cc1 (stereo not shown) [Example 22, N-(6-Bromo-2,3,4,9-tetrahydro-1H-carbazol-1-yl)-4-nitrobenzamide] | 45 |
| COc1ccc(NC(=O)NC2CCCc3c2[nH]c2ccc(Br)cc32)cc1Cl (stereo not shown) [Example 12, N-(6-Bromo-2,3,4,9-tetrahydro-1H-carbazol-1-yl)-N′-(3-chloro-4-methoxyphenyl)urea] | > 10000 |
| O=C(NC1CCCc2c1[nH]c1ccc(Br)cc21)c1ccc(F)cc1 (stereo not shown) [Example 20, N-(6-Bromo-2,3,4,9-tetrahydro-1H-carbazol-1-yl)-4-fluorobenzamide] | 20 |
| O=C(NC1CCCc2c1[nH]c1ccc(Br)cc21)c1c(F)cccc1F (stereo not shown) [Example 52, N-(6-bromo-2,3,4,9-tetrahydro-1H-carbazol-1-yl)-2,6-difluorobenzamide] | 45 |
| O=C(Nc1ccccc1)NC1CCCc2c1[nH]c1ccccc21 (stereo not shown) [Example 42, N-Phenyl-N′-(2,3,4,9-tetrahydro-1H-carbazol-1-yl)urea] | > 10000 |
| CN(C)c1ccc(NC(=O)NC2CCCc3c2[nH]c2ccc(Br)cc32)cc1 (stereo not shown) [Example 13, N-(6-Bromo-2,3,4,9-tetrahydro-1H-carbazol-1-yl)-N′-[4-(dimethylamino)phenyl]urea] | 237 |
| O=C(N[C@H]1CCCc2c1[nH]c1ccc(Cl)cc21)c1ccccc1F [Example 46C, N-[(1S)-6-chloro-2,3,4,9-tetrahydro-1H-carbazol-1-yl]-2-fluorobenzamide] | > 3000 |
| O=S(=O)(NC1CCCc2c1[nH]c1ccc(Br)cc21)c1c(F)cccc1F (stereo not shown) [Example 54, N-(6-bromo-2,3,4,9-tetrahydro-1H-carbazol-1-yl)-2,6-difluorobenzenesulfonamide] | 94 |
| O=C(NC1CCCc2c1[nH]c1ccc(Br)cc21)c1ccc(Cl)cc1 (stereo not shown) [Example 23, N-(6-Bromo-2,3,4,9-tetrahydro-1H-carbazol-1-yl)4-chlorobenzamide] | 17 |
| COc1ccccc1C(=O)NC1CCCc2c1[nH]c1ccc(Br)cc21 (stereo not shown) [Example 30, N-(6-Bromo-2,3,4,9-tetrahydro-1H-carbazol-1-yl)-2-methoxybenzamide] | > 10000 |
| O=C(N[C@H]1CCCc2c1[nH]c1ccc(Br)cc21)c1ccccc1 [Example 14C, N-[(1S)-6-bromo-2,3,4,9-tetrahydro-1H-carbazol-1-yl]benzamide] | 5000 |

| Compound | IC50 [nM] |
| --- | --- |
| O=C(NC1CCCc2c1[nH]c1ccc(Br)cc21)c1ccncc1 (stereo not shown) [Example 41, N-(6-Bromo-2,3,4,9-tetrahydro-1H-carbazol-1-yl)isonicotinamide] | 180 |
| O=C(NC1CCCc2c1[nH]c1ccc(Br)cc21)c1cccnc1 (stereo not shown) [Example 39, N-(6-Bromo-2,3,4,9-tetrahydro-1H-carbazol-1-yl)nicotinamide] | 130 |
| Cn1ccc(C(=O)NC2CCCc3c2[nH]c2ccc(Cl)cc32)n1 (stereo not shown) [Example 49, N-(6-Chloro-2,3,4,9-tetrahydro-1H-carbazol-1-yl)-1-methyl-1H-pyrazole-3-carboxamide] | 1650 |
| COc1ccc(NC(=O)NC2CCCc3c2[nH]c2ccc(Br)cc32)cc1 (stereo not shown) [Example 10, N-(6-Bromo-2,3,4,9-tetrahydro-1H-carbazol-1-yl)-N′-(4-methoxyphenyl)urea] | 24000 |
| O=C(NC1CCCc2c1[nH]c1ccc(Br)cc21)c1ccc(C(F)(F)F)cc1 (stereo not shown) [Example 25, N-(6-Bromo-2,3,4,9-tetrahydro-1H-carbazol-1-yl)-4-(trifluoromethyl)benzamide] | 58 |
| O=C(NC1CCCc2c1[nH]c1ccc(Br)cc21)c1ccccn1 (stereo not shown) [Example 38, N-(6-Bromo-2,3,4,9-tetrahydro-1H-carbazol-1-yl)pyridine-2-carboxamide] | < 10 |
| O=C(N[C@@H]1CCCc2c1[nH]c1ccc(Cl)cc21)c1ccccn1 [Example 45B, N-[(1R)-6-chloro-2,3,4,9-tetrahydro-1H-carbazol-1-yl]pyridine-2-carboxamide] | 5 |
| COc1ccc(C(=O)NC2CCCc3c2[nH]c2ccc(Br)cc32)cc1 (stereo not shown) [Example 21, N-(6-Bromo-2,3,4,9-tetra hydro-1H-carbazol-1-yl)-4-methoxybenzamide] | 22 |
| O=C(NC1CCCc2c1[nH]c1ccc(Cl)cc21)c1cc[nH]n1 (stereo not shown) [Example 51, N-(6-Chloro-2,3,4,9-tetrahydro-1H-carbazol-1-yl)-1H-pyrazole-3-carboxamide] | 73 |
| O=C(NC1CCCc2c1[nH]c1ccccc21)c1ccccc1 (stereo not shown) [Example 34, N-(2,3,4,9-Tetrahydro-1H-carbazol-1-yl)benzamide] | > 10000 |
| O=C(NC1CCCc2c1[nH]c1ccc(Br)cc21)c1cccc(F)c1 (stereo not shown) [Example 26, N-(6-Bromo-2,3,4,9-tetrahydro-1H-carbazol-1-yl)-3-fluorobenzamide] | 14 |
| O=C(N[C@@H]1CCCc2c1[nH]c1ccc(Cl)cc21)c1ccccc1F [Example 46B, N-[(1R)-6-chloro-2,3,4,9-tetrahydro-1H-carbazol-1-yl]-2-fluorobenzamide] | 7 |
| O=C(NC1CCCc2c1[nH]c1ccc(Cl)cc21)c1ccccn1 (stereo not shown) [Example 45A, N-(6-Chloro-2,3,4,9-tetrahydro-1H-carbazol-1-yl)-2-pyridinecarboxamide] | 10 |
| Cc1ccc2[nH]c3c(c2c1)CCCC3NC(=O)Nc1ccccc1 (stereo not shown) [Example 43, N-(6-Methyl-2,3,4,9-tetrahydro-1H-carbazol-1-yl)-N′-phenylurea] | > 10000 |
| O=C(N[C@@H]1CCCc2c1[nH]c1ccc(Cl)cc21)c1ccccc1 [Example 36B, N-[(1R)-6-chloro-2,3,4,9-tetrahydro-1H-carbazol-1-yl]benzamide] | 20 |
| Cc1cccc(C(=O)NC2CCCc3c2[nH]c2ccc(Br)cc32)c1 (stereo not shown) [Example 28, N-(6-Bromo-2,3,4,9-tetrahydro-1H-carbazol-1-yl)-3-methylbenzamide] | 23 |
| Cc1ccccc1C(=O)NC1CCCc2c1[nH]c1ccc(Br)cc21 (stereo not shown) [Example 33, N-(6-Bromo-2,3,4,9-tetrahydro-1H-carbazol-1-yl)-2-methylbenzamide] | 497 |
